Source: US20210340130A1, “Compositions and methods for treating attention deficit disorders” (priority 2016, published 2021)

Experiments:
[1] = tested on: perforant path / dentate gyrus of the hippocampus (fEPSPs); experiment: Effect on evoked fEPSPs in rat hippocampus (anesthetized animals, in vivo); parameters: species or system Rat (Long Evans); conditions: for Minimum Effective Dose: IP, dose range 5-20 mg/kg; for duration of the fEPSP effect: about 2 hours monitoring, CX717 at 20 mg/kg; for effect on evoked fEPSP / maximum increase in fEPSP amplitude: intraperitoneal administration
Procedure: Further selection and characterization of ampakines to identify anti-ADHD drugs useful within the invention involved electrophysiological studies (to measure “electrically evoked field excitatory postsynaptic potentials” (fEPSPs) for test compounds). CX717 and CX1739 were tested for their ability to facilitate synaptic responses in vivo in anesthetized animals following peripheral administration. Stimulating and recording electrodes were inserted into the perforant path and dentate gyrus of the hippocampus, respectively. Electrically evoked field excitatory postsynaptic responses (fEPSPs) were measured before administration of ampakines, and for approximately 2 hours following intraperitoneal administration of ampakines.
Electrically evoked field excitatory postsynaptic potentials (fEPSPs) were determined for the exemplary test ampakines CX717 and CX1739 as described. […] The response magnitude was related to the plasma levels achieved during the study. […] Both ampakines appear to produce a 25% maximum increase in fEPSP amplitude.

[2] = tested on: Male Sprague-Dawley rats; experiment: Spontaneous locomotor activity (LMA) and rearing in rats; type: in vivo
Procedure: Behavioral tests of locomotor activity were conducted to determine the effects of exemplary low impact ampakines CX717 and CX1739 on normal, and amphetamine-stimulated activity in animal behavioral models. […] Male Sprague-Dawley rats (175-200 g; Charles River Laboratories) were given ad libitum food and water and maintained on a 12:12 hr light: dark cycle with lights on at 6:00 a.m. Each of ten test cages (standard polycarbonate animal cage; 26 cm×48 cm×20 cm; W×L×H) were surrounded by two photo beam arrays, placed to detect locomotor activity with a lower array and rearing behavior with an upper array. Locomotor and rearing activity were continuously monitored and recorded by computer for all ten test cages (Photo beam Activity System, San Diego Instruments, San Diego, Calif.). The test period was chosen as the 1st few hours of the dark period of the light: dark cycle. Approximately 15 min before the start of the dark cycle, the rats were removed from the housing facility, transported to the testing room and injected with CX717, CX1739 or vehicle and placed into photo beam activity cages. Immediately after all rats were injected the room lights were turned off and spontaneous activity data were collected for the next four hours. CX717 and CX1739 groups (0.1 to 10 mg/kg) were compared to the vehicle group.

[3] = tested on: hippocampal LTP (hilus of the dentate gyrus); experiment: Effect on induction of LTP in rat hippocampus (anesthetized rat, in vivo); parameters: species or system Rat (Long Evans); conditions: for Minimum Effective Dose: IP
[4] = tested on: Rat (SD); experiment: Radial arm maze - spatial memory; type: in vivo; conditions: for Minimum Effective Dose: IP
Procedure: Yet another animal model for evaluating ampakine drug activity employed herein is the well known and widely accepted Radial Arm Maze model. CX717 was tested for its ability to improve the performance of aged rats in an eight-arm radial maze using a cross-over design study. This behavioral test uses a standard eight-arm radial maze wherein five arms were open and baited with food pellets for the first morning session. Each animal was allowed to consume the food rewards present in the open arms and was then returned to its home cage. Six hours later animals were returned to the maze, wherein all eight-arms were open, but only the three arms previously closed contained food rewards. Scoring was based on the number of correct choices before an incorrect choice (re-entering an arm that was visited during the morning acquisition session) was made and on the total number of incorrect choices made before all three of the still baited arms were visited. CX717 was tested at six doses (0.03, 0.1, 0.3, 1, 3 and 10 mg/kg in hydroxypropyl β-cyclodextran, i.p.), administered 30 min prior to the start of the morning acquisition session and no drug was given prior to the second trial six hours later.
For CX1739 male Sprague-Dawley rats were trained to perform the win shift assay on the radial arm maze for approximately 10 weeks prior to the study. On each day of training and testing, each rat completed one trial, split into a sample phase and a test phase. During the sample phase, the rat was placed on a 12-arm radial arm maze surrounded by visual cues. Food wells at the end of each arm were baited with sucrose pellets but access to three arms, selected randomly, was blocked with a clear plastic divider at the arm entrance. The rat was allowed 5 minutes to search the maze and collect the available food pellets before being removed from the maze. Fifteen minutes later the rat was returned to the maze for the test phase of the trial. During the test phase, the rat was allowed access to all 12 arms of the maze but only the arms that had been blocked previously were baited with sucrose pellets. The rat was allowed 3 minutes to collect the available food pellets before being removed from the maze. On test days, rats were injected with CX1739 (0.03-1.0 mg/kg, i.p.) or vehicle immediately following the sample phase of the study. The primary dependent measure was the cumulative number of arm entries prior to entering the first, second, and third baited arm during the test phase.

[5] = tested on: Rat (SD); experiment: Amphetamine-stimulated locomotion and rearing in rats; type: in vivo; conditions: for Minimum Effective Dose: PO, dose range 1-10 mg/kg
Procedure: Effects of exemplary low impact ampakines were also evaluated in mice for the ability to inhibit amphetamine-stimulated locomotor activity. Mice were placed in the locomotor chamber for 20 min to habituate, removed, injected with either vehicle or anti-ADHD ampakine (CX717), and 5 min later injected with 2 mg/kg i.p. Amphetamine. Mice were returned to the locomotor chamber 10 min later, and their activity measured for a further 15 min. In related studies, adult male CD1 mice or male Sprague-Dawley rats were acclimated in a test chamber for 20 minutes removed and dosed i.p. (mice) or orally (rats) with CX1739, vehicle, or a reference compound. Five (mice) or 10 (rats) were then injected with amphetamine (2 mg/kg, i.p.) or saline vehicle and were returned to the activity test chamber.

[6] = aged rats, eight-arm maze, 0.03-10 mg/kg i.p.

SMILES | Minimum Effective Dose [1] [mg/kg] | duration of the fEPSP effect [1] | effect on evoked fEPSP [1] | maximum increase in fEPSP amplitude [1] [%] | spontaneous rearing ([2]; 10 mg/kg vs. vehicle, p<0.01) | pharmacodynamics of the effect on rearing behavior ([2]; 10 mpk, 1, 2, 3 and 4 hours post treatment) | spontaneous locomotor activity ([2]; first hour following ip administration, ANOVA=0.45) | enhancement of hippocampal LTP relative to baseline ([3]; 2 mg/kg, after the tetanus, P<0.01) [%] | Minimum Effective Dose [3] [mg/kg] | Minimum Effective Dose [4] [mg/kg] | doses with highly significant difference in performance between drug and vehicle days ([4]; Kruskal-Wallace P=0.008, Wilcoxon Signed Rank Test) [mg/kg] | number of correct choices (before making an error) in the second maze session [4, 6] | total number of errors [4, 6] | amphetamine-stimulated locomotion activity ([5]; 3 mg/kg) | amphetamine-stimulated rearing ([5]; 1 and 3 mg/kg) | Minimum Effective Dose [5] [mg/kg] | effect on LTP ([3]; 3 mg/kg, p<0.01) | entries before finding the third arm with a food pellet reward ([4]; 0.3 mg/kg, 12-arm maze, p<0.05) | optimal dose (dose producing the maximal effect) in the maze assay ([4]; ip) [mg/kg] | amphetamine-stimulated rearing behavior ([5]; rats, all doses tested)
O=C(c1ccc2nonc2c1)N1CCOCC1 [CX717, 1-(benzofurazan-5-ylcarbonyl)morpholine] | 5 | plateaued for the duration of monitoring | long-lasting increase in the evoked fEPSP in a concentration-dependent manner | ~25 | significant decrease | prolonged action | no effect | 200 | 2 | 0.3 | ≥ 0.3 | dose-dependent increase | decrease | significant decrease | inhibits rearing | 1 |  |  |  | 
CN(C(=O)c1ccc2nonc2c1)C1CCOCC1 [CX1739, N-Methyl-N-tetrahydro-2H-pyran-4-yl-[2,1,3]-benzoxadiazole-5-carboxamide] | 5 | declined to baseline after two hours | substantial increase in EPSP amplitude | ~25 |  |  |  |  | 3 | 0.3 |  |  |  |  |  | 1 | statistically significant increase in LTP | significantly fewer entries | 0.3 | modest reduction
